Paper PMC11189516, “Structure-guided conversion from an anaplastic lymphoma kinase inhibitor into Plasmodium lysyl-tRNA synthetase selective inhibitors” (Communications Biology, 2024)
Where “and” joins values, the source holds several entries; their conditions need not be identical. Identical values can stand only once. Like-named read-outs stand apart in the source and are kept apart here. Blank lines part the entries; values can stand above or below the compound they belong to.

What was measured:
PfLysRS [1] = target: T1, PfLysRS (Plasmodium falciparum, UniProt Q8IDJ8); assay: Thermal shift assay; type: binding; conditions: for ΔTm of PfLysRS / ΔTm at 200 µM: in the presence of L-lysine; for Tm of PfLysRS, Average / Tm of PfLysRS, single repeat: +Lysine
T1 construct: PfLysRS (77–583) was constructed in the vector pET20b, with a C-terminal 6×His tag; 6xHis (C); made in house; host or cells: E. coli BL21 (DE3)
T1 sequence (Q8IDJ8 entry or part of it): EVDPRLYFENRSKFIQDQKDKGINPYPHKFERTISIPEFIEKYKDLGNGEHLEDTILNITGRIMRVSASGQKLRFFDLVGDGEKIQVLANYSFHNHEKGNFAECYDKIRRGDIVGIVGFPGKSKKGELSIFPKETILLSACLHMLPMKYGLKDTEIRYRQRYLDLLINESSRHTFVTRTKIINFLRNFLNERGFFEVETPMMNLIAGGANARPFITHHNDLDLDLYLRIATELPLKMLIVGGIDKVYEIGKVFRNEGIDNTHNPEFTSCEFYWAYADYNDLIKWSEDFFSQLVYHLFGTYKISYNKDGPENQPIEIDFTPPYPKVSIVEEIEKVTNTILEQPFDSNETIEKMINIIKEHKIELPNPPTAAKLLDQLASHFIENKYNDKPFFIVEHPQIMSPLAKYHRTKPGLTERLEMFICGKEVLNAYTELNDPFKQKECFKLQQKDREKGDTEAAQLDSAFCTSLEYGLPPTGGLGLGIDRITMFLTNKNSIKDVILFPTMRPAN
Description: PfLysRS protein was prepared at 10 μM concentration in a buffer containing 20 mM Tris pH 8.0, 200 mM NaCl, 500 μM L-lysine, and 200 μM Compound. Aliquots (18 µL) were added to a 96-well PCR plate and incubated at ambient temperature for 10 min. SYPRO Orange dye (Sigma) was diluted in the assay buffer containing 20 mM Tris pH 8.0 and 200 mM NaCl to a 40× concentration, and 2 µL of the 40× dye solution was added to the PCR plate to bring the final assay volume to 20 µL. After complete mixing, the final solutions were heated from 25 to 90 °C at a rate of 0.015 °C per sec, and fluorescence signals were monitored by QuantStudio 3 (Applied Biosystems by Thermo Fisher Scientific).

PfLysRS [2] = target: T1, PfLysRS; assay: ATP hydrolysis assay (Kinase-Glo) on PfLysRS; type: biochemical
Description: (§1) The ATP hydrolysis assays were based on Kinase-Glo luminescent Kit (Promega). The experiment was carried out in Corning 384-well white flat bottom microplates. The buffer in the reaction contains 25 mM Hepes pH 7.4, 140 mM NaCl, 40 mM MgCl2, 30 mM KCl, 1 mM TCEP, 0.1 mg·mL^−1 BSA, and 0.004% Tween-20. The compounds were diluted to different concentrations with a 5-fold gradient.
(§2) For LysRS assays, DMSO was added into negative control wells and L-lysine was removed in positive control wells. 100 nM LysRS in 2.5 μL Hepes buffer was mixed with compounds and incubated for 10 min. Then 5 μL substrate mixture (2 μM ATP, 10 μM L-lysine and 31 nM pyrophosphatase) was added to start the reaction at 37 °C and incubated for 6 h.
(§3) When the reaction reaches the planned time, 10 μL diluted Kinase-Glo reagent (1/50 diluted with a buffer containing 50 mM Tris pH 7.5 and 5% glycerol) was added and incubated for 15 min. Luminescence was measured on the Magellan plate reader (Tecan) and nonlinear regression was performed with Prism (GraphPad).

HsLysRS = target: T2, HsLysRS (Homo sapiens, UniProt Q15046); assay: ATP hydrolysis assay (Kinase-Glo) on HsLysRS; type: biochemical
T2 construct: HsLysRS (70–581) was constructed in the vector pET20b with a C-terminal 6×His tag; 6xHis (C); made in house; host or cells: E. coli (pET20b; 'purified similarly' to PfLysRS, which was expressed in BL21 (DE3))
T2 sequence (Q15046 70-581): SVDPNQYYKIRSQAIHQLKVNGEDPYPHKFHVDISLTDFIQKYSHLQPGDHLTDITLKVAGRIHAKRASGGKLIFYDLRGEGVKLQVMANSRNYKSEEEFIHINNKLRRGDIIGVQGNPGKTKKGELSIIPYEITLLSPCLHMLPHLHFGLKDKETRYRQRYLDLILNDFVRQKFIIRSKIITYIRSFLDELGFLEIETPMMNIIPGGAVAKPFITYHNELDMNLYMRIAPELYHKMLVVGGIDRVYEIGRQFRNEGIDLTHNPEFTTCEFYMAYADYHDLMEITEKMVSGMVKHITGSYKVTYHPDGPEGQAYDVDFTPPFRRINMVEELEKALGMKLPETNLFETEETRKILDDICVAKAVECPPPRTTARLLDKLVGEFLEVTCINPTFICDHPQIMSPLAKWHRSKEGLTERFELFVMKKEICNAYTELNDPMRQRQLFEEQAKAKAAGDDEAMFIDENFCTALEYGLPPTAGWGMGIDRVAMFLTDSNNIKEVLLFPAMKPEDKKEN
Description: as §1, §2, §3

ALK = target: T3, ALK (Homo sapiens, UniProt Q9UM73); assay: ATP hydrolysis assay (Kinase-Glo) on ALK; type: biochemical
T3 construct: The plasmid pCDNA3.1_8×His-tev-ALK (kinase domain, 1068–1410) was constructed; 8xHis (N); TEV site (N); made in house; host or cells: Expi293 cells (transient transfection)
T3 sequence (Q9UM73 1068-1410): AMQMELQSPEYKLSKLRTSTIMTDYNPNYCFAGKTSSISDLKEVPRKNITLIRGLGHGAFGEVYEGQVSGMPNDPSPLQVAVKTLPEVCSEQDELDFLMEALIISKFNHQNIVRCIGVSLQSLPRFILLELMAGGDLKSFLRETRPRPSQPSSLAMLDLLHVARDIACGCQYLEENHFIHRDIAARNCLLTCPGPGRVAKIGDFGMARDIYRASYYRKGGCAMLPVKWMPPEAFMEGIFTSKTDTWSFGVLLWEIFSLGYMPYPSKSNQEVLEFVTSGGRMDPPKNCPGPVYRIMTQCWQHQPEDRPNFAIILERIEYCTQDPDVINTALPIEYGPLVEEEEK
Description: as §1
For ALK assays, DMSO was added into negative control wells. 100 nM ALK in 2.5 μL Hepes buffer was mixed with compounds and incubated for 10 min. Then 5 μL substrate (2 μM ATP) was added to start the reaction at 37 °C and incubated for 6 h.
as §3

- ΔTm of PfLysRS (PfLysRS [1]): −0.2 °C
Compound: COc1ccc(OC)c(Nc2cccc(Nc3ccccc3S(=O)(=O)C(C)C)c2)c1 [Compound 36d]

- ΔTm of PfLysRS (PfLysRS [1]): 3.1 °C
Compound: COc1ccc(OC)c(Nc2cc(Nc3ccccc3S(=O)(=O)C(C)C)ncn2)c1 [Compound 36e]

- ΔTm of PfLysRS (PfLysRS [1]): 2.4 °C
Compound: COc1ccc(OC)c(Nc2nccc(Nc3ccccc3S(=O)(=O)C(C)C)n2)c1 [Compound 36f]

Compound: CC(C)S(=O)(=O)c1ccccc1Nc1ncnc(Nc2ccccc2S(=O)(=O)C(C)C)n1 [Compound 37]
- ΔTm of PfLysRS (PfLysRS [1]): 0.5 °C

- HillSlope (best-fit value) (PfLysRS [2]; PfLysRS): 0.6952
- LogIC50 (best-fit value) (PfLysRS [2]; PfLysRS, log of nM): 2.755
- IC50 (PfLysRS [2]; PfLysRS, source data, read-out: IC50 (best-fit value)): 0.568 µM
- IC50 (PfLysRS [2]; read-out: IC50 against PfLysRS): 0.568 µM
- Tm of PfLysRS, Average (PfLysRS [1]): 48.001 °C
- ΔTm at 200 µM (PfLysRS [1]): 7.9 °C
- HillSlope (best-fit value) (HsLysRS; HsLysRS): 1.205
- % Inhibition (HsLysRS; HsLysRS, Log(Concentration)/nM 2.505, single repeats): 3.343% and 6.292% and 8.061%
- % Inhibition (HsLysRS; HsLysRS, Log(Concentration)/nM 3.204, single repeats): -0.8065% and 1.795% and 3.658%
- % Inhibition (HsLysRS; HsLysRS, Log(Concentration)/nM 3.903, single repeats): 7.774% and 9.643% and 10.78%
- % Inhibition (HsLysRS; HsLysRS, Log(Concentration)/nM 4.602, single repeats): 27.95% and 31.1% and 35.27%
- % Inhibition (HsLysRS; HsLysRS, Log(Concentration)/nM 5.301, single repeats): 65.61% and 74.02% and 86.84%
- % Inhibition (HsLysRS; HsLysRS, Log(Concentration)/nM 6.000, single repeats): 101.8% and 97.59% and 99.58%
- LogIC50 (best-fit value) (HsLysRS; HsLysRS, log of nM): 4.923
- IC50 (HsLysRS; HsLysRS, source data, read-out: IC50 (best-fit value)): 83.7 µM
- IC50 (HsLysRS; read-out: IC50 against HsLysRS): 84 µM
- HillSlope (best-fit value) (ALK; ALK): 0.6894
- LogIC50 (best-fit value) (ALK; ALK, log of nM): 2.857
- IC50 (ALK; ALK, source data, read-out: IC50 (best-fit value)): 0.719 µM
- IC50 (ALK; read-out: IC50 against ALK): 0.719 ± 0.182 µM
Compound: COc1ncccc1Nc1ncnc(Nc2ccccc2S(=O)(=O)C(C)C)n1 [Compound 38a]
- Tm of PfLysRS, single repeat (PfLysRS [1]): 48.109 °C and 48.140 °C and 47.986 °C and 47.770 °C

- Tm of PfLysRS, Average (PfLysRS [1]): 42.100 °C
- ΔTm at 200 µM (PfLysRS [1]): 2 °C
Compound: COc1cccnc1Nc1ncnc(Nc2ccccc2S(=O)(=O)C(C)C)n1 [Compound 38b]
- Tm of PfLysRS, single repeat (PfLysRS [1]): 42.223 °C and 42.193 °C and 42.039 °C and 41.946 °C

Compound: COc1ccc(C)cc1Nc1ncnc(Nc2ccccc2S(=O)(=O)C(C)C)n1 [Compound 39]
- ΔTm of PfLysRS (PfLysRS [1]): 4.1 °C

Compound: COc1ccc([N+](=O)[O-])cc1Nc1ncnc(Nc2ccccc2S(=O)(=O)C(C)C)n1 [Compound 40]
- ΔTm of PfLysRS (PfLysRS [1]): 2.5 °C

Compound: COc1ccc(F)cc1Nc1ncnc(Nc2ccccc2S(=O)(=O)C(C)C)n1 [Compound 41]
- ΔTm of PfLysRS (PfLysRS [1]): 1.9 °C

Compound: COc1ccc(OC(F)(F)F)cc1Nc1ncnc(Nc2ccccc2S(=O)(=O)C(C)C)n1 [Compound 42]
- ΔTm of PfLysRS (PfLysRS [1]): 1.5 °C
